The subject of one data set is p53. The experiment in a line: Immunoblot of p53 protein in RKO cells. The class given is cell-based, human. The conditions noted are these: 10 μg/ml, 16 and 24 h. As to the method:
(§1) Accumulation of p53 protein, and the p53-regulated cdk inhibitor p21WAF1/CIP1, were assayed by immunoblotting in a parallel time course after inhibition of FAS (FIG. 4). Cells were treated with cerulenin (10 μg/ml) (A) or C-75 (10 μg/ml) (B) for the stated exposure times, and analyzed by immunoblotting for p53 and p21 protein content, with actin as an internal control. One million cells per 60-mm plate were treated with 10 μg/ml cerulenin or C-75 in duplicate for the indicated time intervals; control cells received equivalent amounts of DMSO. After drug treatment, cells were lysed with 200 μl Laemmli sample buffer and boiled. Ten μl of each lysate per lane was separated by SDS-PAGE, transferred to nitrocellulose, and exposed to antibodies against p53 (Pab1801, Oncogene Research Products), p21 (6B6, PharMingen) or actin (I-19, Santa Cruz), followed by horseradish peroxidase-conjugated goat anti-mouse or rabbit anti-goat antibody (Pierce), enhanced chemiluminescence (Amersham) and autoradiography.
A general note: A western blot detects proteins with antibodies after separation by electrophoresis.

In the next data set the test system is fatty acid synthesis. The conditions noted are these: cited from earlier work.
Data set [1] deals with RKO colon carcinoma cells. The experiment in a line: DNA content of treated RKO cells by flow cytometry (cell cycle distribution). It is filed as cell-based, human. The conditions noted are these: 10 μg/ml; for cell cycle distribution (DNA content), early time points: 5 and 8 h. The method, then: Cells were cultured in DMEM with 10% fetal bovine serum (Hyclone). Cells were screened periodically for mycoplasma contamination (Gen-probe). Cerulenin (Sigma) C-75 and TOFA, dissolved in DMSO, were added from 5 mg/ml stock solutions; the final concentration of DMSO in cultures was at or below 0.2%. Cells were exposed to cerulenin or C-75 for the indicated doses and time intervals, then detached from plastic with trypsin for flow cytometry analysis. DNA content was measured by multiparameter flow cytometry using a FACStar^Plus flow cytometer equipped with argon and krypton lasers (Becton Dickinson).

The next data set relates to p21WAF1/CIP1. The experiment in a line: Immunoblot of p21 protein in RKO cells. The class given is cell-based, human. The following applies: 10 μg/ml, 16 and 24 h. The method, then:
as §1

For a further data set, the system named is MCF7 breast cancer cells. The experiment in a line: Alkaline single cell gel electrophoresis (comet assay), MCF7. It is filed as cell-based, human. The following applies: 3 h, doses bracketing 75% survival at 24 h. The source says: This assay detects DNA strand breaks, and a spectrum of alkali-labile DNA damage at low levels (Singh, N. P., McCoy, M. T., Tice, R. R., and Schneider, E. L., “A simple Technique for Quantitation of Low Levels of DNA Damage in Individual Cells,” Experimental Cell Research, 175:184-191, (1988); Plappert, U., Raddatz, K., Roth, S., and Fliedner, T. M., “DNA-Damage Detection in Man After Radiation Exposure—the Comet Assay—Its Possible Application for Human Biomonitoring,” Stem Cells, 13 Supplement 1:215-222, (1995)).
Cerulenin- or C-75-treated MCF7 breast carcinoma cells were subjected to alkaline single cell gel electrophoresis (comet assay). MCF7 breast cancer cells were treated with cerulenin or C-75 for 3 h at doses bracketing 75% survival at 24 h. All experiments were repeated three times and duplicate slides from each experiment were prepared and scored. […] Neutralized, dehydrated slides were stained with ethidium bromide (2 ng/ml) and comets scored under a Nikon fluorescence microscope (with TRITC filters) coupled to a KOMET 4.0 software (Kinetic Imaging Ltd).
Olive tail moment indicates electrophoretic mobility of DNA induced by DNA damage. […] One hundred consecutive cells were scored from the middle of each slide, and the means calculated. The final results were expressed as the (mean of the individual means)±(standard deviation of the means). […]

In the next data set the test system is RKO cells. The experiment in a line: BrdU pulse/chase cell cycle progression by laser scanning cytometry. It is filed as cell-based, human. The conditions noted are these: 10 μg/ml, chase 4-24 h. As to the method:
A similar experiment measured cell cycle progression by pulse/chase labeling with bromodeoxyuridine (BrdU, FIG. 2). The BrdU-positive S-phase fraction at time zero progresses through the cell cycle at later time points. B. The progress of BrdU pulse-labeled RKO cells through the cell cycle was monitored over 24 h without inhibition of FAS, or during exposure to cerulenin (10 μg/ml) or C-75 (10 μg/ml).
Dual-parameter detection of Bromodeoxyuridine (BrdU) labeling and DNA content was performed using a laser scanning cytometer (Compucyte Corp.). Cell cultures were pulse-labeled for 20 min with 10 μM BrdU, and chased for the indicated times in the absence or presence of drug, then detached from plastic with trypsin, ethanol-fixed and applied to glass slides. Cells were subjected to standard heat-induced epitope retrieval (DAKO) before staining with anti-BrdU antibody (DAKO) and FITC-conjugated goat anti-mouse antibody (CALTAG, DAKO Autostainer™). DNA content was assessed after staining with 0.5% propidium iodide. Data were collected and analyzed using WinCyte software (Compucyte Corp.).
A 20-min exposure of proliferating cells to BrdU labeled the S-phase population at time zero. Chase samples were collected at 4, 8, 16 and 24 h. In control cultures (FIG. 2A), the BrdU-labeled population progressed through G2/M, first reappearing in the G1 population in the 8 h chase sample. […]

Data set [2] deals with cyclin A-associated kinase activity. The experiment in a line: Immunocomplex-kinase assay after drug exposure of RKO cells, cyclin A. The class given is cell-based, human. The conditions noted are these: 10 μg/ml, later time points (16 and 24 h). As to the method: The effect of FAS inhibitors on the activity of cyclin/cdk complexes in RKO cells was determined in a time course analysis. After RKO cells were exposed to FAS inhibitors for the indicated time periods, cyclin A- and cyclin B 1-associated kinase activities were determined by an immunocomplex-kinase assay.
Five×10^6 RKO cells per 100-mm plate were treated with 10 μg/ml cerulenin or C-75 for the indicated time intervals. The control cells received equivalent amounts of DMSO. After drug treatment, the plates were washed once and lysed with immunoprecipitation (IP) buffer (150 mM Tris, pH 7.4, 150 mM NaCl, 1% Triton X-100, 0.5% NP-40, 1 mM ethyleneglyco-bis-tetraacetic acid, 0.2 mM sodium vanadate, and 0.2 mM phenylmethylsulfonyl fluoride). Protein concentration was measured using the BCA Protein Assay Kit (Pierce). One hundred μg of protein from each sample was incubated at 4° C. for 1 h with 1 μg of primary antibody (anti-human cyclin A rabbit polyclonal antibody or anti-human cyclin B 1 monoclonal antibody, Santa Cruz) and then overnight after addition of Protein A or protein G-Sepharose (Santa Cruz). […] Samples were resolved by electrophoresis through 12% SDS-polyacrylamide gels and quantitated on a Storm 820 system (Molecular Dynamics). […]

The next data set concerns RKO-p53 cells. The experiment in a line: Apoptosis by merocyanine 540 multiparameter flow cytometry. It is filed as cell-based, human. The source says: The effect of p53 function on survival after FAS inhibition was investigated by comparing two pairs of isogenic cell lines with wild-type and altered p53 function. RKO cells were rendered p53-mutant by stable transfection with a dominant-negative mutant p53 gene (RKO-p53); the human breast carcinoma cell line MCF7 was rendered p53-deficient by constitutive expression of the human papilloma virus 16 E6 gene (MCF7-E6) (Fan, S., Smith, M. L., Rivet, D. J., 2nd, Duba, D., Zhan, Q., Kohn, K. W., Fornace, A. J., Jr., and PM, O. C., “Disruption of p53 Function Sensitizes Breast Cancer MCF-7 Cells to Cisplatin and Pentoxifylline,” Cancer Research, 55:1649-1654, (1995)).
Cells were exposed to cerulenin or C-75 for the indicated doses and time intervals, then detached from plastic with trypsin for flow cytometry analysis. Apoptosis was measured by multiparameter flow cytometry using a FACStar^Plus flow cytometer equipped with argon and krypton lasers (Becton Dickinson). […] Merocyanine 540-positive cells were identified using 488-nm excitation from an argon laser and a 575-nm DF26 bandpass filter for collection of events with increased red fluorescence. Data were collected and analyzed using CellQuest software (Becton Dickinson). […]
On the technique in general: Flow cytometry measures light scatter and fluorescence of single cells or particles in a stream.

SMILES strings stand for the structures.

As to `C=C1C(=O)OC(CCCCCCCC)C1C(=O)O` (stereo not shown) [C-75], the p53 protein level entry with p53 is “induced accumulation”. Further, the “inhibitory effects on fatty acid synthesis” value in the data set with fatty acid synthesis is on record as “comparable to those seen with cerulenin”. Also, the “cell cycle distribution (DNA content), early time points” value in data set [1] is “This effect was characteristic of both cerulenin and C-75 treatment”. In addition, in the data set on p21WAF1/CIP1, the p21 protein level entry is reported as “induced accumulation”. In addition, the “DNA damage, olive tail moment” value in the data set with MCF7 breast cancer cells is “Neither cerulenin nor C-75 induced olive tail moments over background values”. Further, the “cell cycle progression of BrdU pulse-labeled cells” value in the data set on RKO cells was “exhibited a similar response”. The “kinase activity associated with immunoprecipitated cyclin A complexes, later time points” value in data set [2] was “increased moderately”.

Take `CCCCCCCCCCCCCCOc1ccc(C(=O)O)o1` [TOFA, 5-(tetradecyloxy)-2-furoic acid]: the “effect of pretreatment on FAS inhibitor mediated apoptosis” value with RKO-p53 cells (RKO-p53 cells, TOFA pretreatment) is reported as “did rescue FAS inhibitor mediated apoptosis”.

Regarding `C/C=C/C/C=C/CCC(=O)[C@H]1O[C@H]1C(N)=O` [cerulenin, (2R, 3S)-2,3-epoxy-4-oxo-7,10-trans,trans-dodecadienamide], the p53 protein level result with p53 is reported as “induced accumulation”. Also, in data set [1], the “cell cycle distribution (DNA content), early time points” value was “redistribution of cells into S phase and G2/M”. Further, the “cell cycle distribution (DNA content), late time points” value in data set [1] (16 and 24 h) is “S-phase fraction decreased substantially, with a redistribution of cells into G1 and G2/M”. Further, the p21 protein level result in the data set with p21WAF1/CIP1 is on record as “induced accumulation”. Besides, the “apoptosis (MC540) in p53-deficient cells compared to parent line” value in the data set with RKO-p53 cells (RKO-p53 vs parent RKO, 24 h exposure, 5 or 10 μg/ml) was “large, dose-dependent increase in apoptosis”. Moreover, the “DNA damage, olive tail moment” value in the data set with MCF7 breast cancer cells is listed as “Neither cerulenin nor C-75 induced olive tail moments over background values”. In addition, the “cell cycle progression of BrdU pulse-labeled cells” value in the data set on RKO cells is listed as “substantial delays in cell cycle progression”. Further, the “kinase activity associated with immunoprecipitated cyclin A complexes, later time points” value in data set [2] is listed as “increased moderately”.

Source of the values: patent US20020173447A1, “Cytostatic effects of fatty acid synthase inhibition” (priority 2001, published 2002).
